Measured values as given in paper PMC6006285, “Specific stereochemistry of OP-1074 disrupts estrogen receptor alpha helix 12 and confers pure antiestrogenic activity” (Nature Communications, 2018).
Where “and” joins values, the source holds several entries; their conditions need not be identical. Equal entries are not always repeated. Where two headings read alike, the source gives them in different places.

Key:
ERα = target: T1, ERα (Homo sapiens, UniProt P03372); experiment: ERα protein levels by immunoblotting; assay type: cell-based; details: MCF-7 cells, 100 nM ligand, 24 h, means of n experiments ±s.d.
T1 construct: endogenous in cells
T1 sequence (P03372 1-595): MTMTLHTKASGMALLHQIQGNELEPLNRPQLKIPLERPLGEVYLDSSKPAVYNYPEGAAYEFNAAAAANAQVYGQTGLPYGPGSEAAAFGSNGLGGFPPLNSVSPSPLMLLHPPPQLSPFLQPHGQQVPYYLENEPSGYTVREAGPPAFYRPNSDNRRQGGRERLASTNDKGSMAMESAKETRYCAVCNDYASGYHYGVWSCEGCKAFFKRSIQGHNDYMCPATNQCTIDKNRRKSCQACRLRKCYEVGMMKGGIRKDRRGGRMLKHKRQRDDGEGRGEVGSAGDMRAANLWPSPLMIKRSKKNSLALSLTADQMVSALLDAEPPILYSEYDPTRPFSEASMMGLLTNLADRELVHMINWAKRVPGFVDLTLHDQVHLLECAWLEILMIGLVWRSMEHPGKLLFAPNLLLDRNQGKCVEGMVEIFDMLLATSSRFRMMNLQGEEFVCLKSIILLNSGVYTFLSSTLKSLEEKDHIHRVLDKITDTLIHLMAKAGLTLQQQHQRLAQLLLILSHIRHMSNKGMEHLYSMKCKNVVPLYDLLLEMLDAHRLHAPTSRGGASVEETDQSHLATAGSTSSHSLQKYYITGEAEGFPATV
Experimental: However, it is conceivable that under some clinical contexts SERD activity may still be a desirable feature by reducing the number of functional receptors in tumors.
Imaging was performed on FluorChem Imager by Alpha Innotech. […] An uncropped image of the immunoblot is shown in Supplementary Fig. 5.

CAMA-1 cells = experiment: Inhibition of E2-stimulated proliferation of CAMA-1 cells; assay type: cell-based; details: Homo sapiens, CAMA-1, 192 h; read-out: CAMA-1 IC50 proliferation (Fig. 3c)
Experimental: Shown is a representative figure analyzed and presented as above. d, Western blot of destabilization of ERα protein by OP-1074.
Proliferation was measured using CyQuant fluorescent DNA-binding dye kit (ThermoFisher Scientific, #C7026) using 1:200 GR dye and reading fluorescence at 485 nm excitation and 538 nm emission on the Varioskan Lux multimodal plate reader.

androgen receptor (AR) = target: T2, androgen receptor (AR) (Homo sapiens, UniProt P10275); experiment: PRE3X-TATA-Luc reporter in HeLa cells transfected with AR; assay type: cell-based; details: alone or + 32 nM R1881, 22 h
T2 construct: HeLa cells were transfected as above but also with plasmids for full length wild; expressed in transfected cells; host or cells: HeLa
T2 sequence (P10275 1-920): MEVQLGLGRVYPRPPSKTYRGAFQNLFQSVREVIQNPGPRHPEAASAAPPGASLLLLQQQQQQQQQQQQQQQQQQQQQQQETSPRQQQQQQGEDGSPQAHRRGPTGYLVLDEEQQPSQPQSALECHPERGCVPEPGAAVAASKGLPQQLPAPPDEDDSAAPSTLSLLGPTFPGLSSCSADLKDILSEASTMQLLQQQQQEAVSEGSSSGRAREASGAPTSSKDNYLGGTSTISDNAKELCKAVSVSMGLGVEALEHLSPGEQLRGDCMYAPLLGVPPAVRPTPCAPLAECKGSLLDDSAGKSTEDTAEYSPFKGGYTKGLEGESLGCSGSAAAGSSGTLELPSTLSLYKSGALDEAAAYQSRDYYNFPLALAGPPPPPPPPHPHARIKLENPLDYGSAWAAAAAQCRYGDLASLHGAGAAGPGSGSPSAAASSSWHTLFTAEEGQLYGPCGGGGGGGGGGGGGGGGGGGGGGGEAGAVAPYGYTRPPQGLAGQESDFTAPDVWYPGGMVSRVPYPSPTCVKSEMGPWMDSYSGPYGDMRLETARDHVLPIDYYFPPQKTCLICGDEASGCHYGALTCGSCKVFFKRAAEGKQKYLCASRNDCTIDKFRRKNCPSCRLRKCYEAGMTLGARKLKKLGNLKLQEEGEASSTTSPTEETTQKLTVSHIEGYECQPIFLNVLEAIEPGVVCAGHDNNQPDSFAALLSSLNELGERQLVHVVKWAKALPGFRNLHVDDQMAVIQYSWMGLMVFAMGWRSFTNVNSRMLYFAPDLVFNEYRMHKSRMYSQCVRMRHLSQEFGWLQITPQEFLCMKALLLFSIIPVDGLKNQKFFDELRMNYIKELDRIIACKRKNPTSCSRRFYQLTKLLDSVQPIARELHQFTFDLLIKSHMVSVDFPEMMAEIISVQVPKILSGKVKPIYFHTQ
Experimental: representative experiment. […]
receptor (AR, (B)), glucocorticoid receptor (GR, (C)), and the B-isoform of the progesterone receptor (PR-B, (D)). HeLa cells were transfected with the designated wild type receptor along with reporter gene PRE3X-TATA-Luc, which is promiscuously activated with known agonists specific for each receptor: R1881 for AR, dexamethasone (Dex) for GR, and medroxyprogesterone acetate (MPA) for PR-B. Each receptor was also dosed with one concentration of known antagonist for each receptor: 32 nM bicalutamide for AR, and 500 nM RU486 for GR and PR. Transfected cells were treated with the designated ligands for 22 hours and luciferase activity assayed. Shown are representative experiments, independently performed at least 3 times. Note that curves for agonists for each receptor were performed in separate experiments. Shown are means with SEM, normalized to percent of 32 nM R1881 for AR, 32 nM Dex for GR, and 0.5 µM MPA for PR-B (except with MPA alone, which was normalized to […]
either ERα or ERβ, and 85 ng ERE-3x-Luc, containing 3 copies of estrogen-response element (ERE) cloned into pGL4.23 luciferase reporter gene containing a minimal TATA promoter […]
hours (1.25% total final charcoal dextran stripped FBS). Bright Glo luciferase reagent (Promega) […]

[1] = Pharmacokinetics in mouse plasma at conclusion of xenograft study; assay type: in vivo
[2] = female, athymic nude, mouse plasma, final dose, 100 mg/kg oral gavage twice daily

Structure (SMILES): CC1=C(c2ccc(O)cc2)[C@H](c2ccc(OCCN3CC[C@@H](C)C3)cc2)Oc2cc(O)ccc21 [OP-1074]
- Relative ERα protein levels (% vehicle) (ERα): 49 % vehicle and 49% ± 13 (n = 15) % vehicle
- IC50 (CAMA-1 cells): 5.7 nM
- Agonist and antagonist activity on AR (androgen receptor (AR)): lacks agonist and antagonist activity
- Cmax ([1]; female, athymic nude, oral, 100 mg/kg, mouse plasma, final dose, over a 24-h period, read-out: Cmax (Fig. 7c)): 1280 ng/mL
- AUC [1, 2]: 8200 ng·h/mL
- Tmax [1, 2]: 1.5 h
- half-life [1, 2]: 3.01 h
- Cmax ([1]; female, athymic nude, mouse plasma, final dose, 100 mg/kg oral gavage twice daily, read-out: Cmax): 1300 ng/mL
- Oral bioavailability ([1]; mouse, 100 mg/kg oral gavage twice daily): good oral bioavailability
